# Test results taken from patent US20210330611A1, “THERAPY FOR NEUROLOGICAL DISEASES/DISORDERS” (priority 2020, published 2021).
# Counter-ions that a name gives are not always drawn. Like-named read-outs stand apart in the source and are kept apart here.
# Assays:
# [1] = system: fibrin-induced microglia activation; experiment: Image-based assay of fibrin-induced microglia activation (HTS and dose response); assay type: cell-based, rat; details: primary microglia HTS, fibrin stimulation; for inhibition at 10 µM: Rattus norvegicus, Microglia, read-out: Fibrin % inhibition
# [2] = system: LPS-induced microglia activation; experiment: Image-based assay of LPS-induced microglia activation (HTS and dose response); assay type: cell-based, rat; details: primary microglia HTS, LPS stimulation; for inhibition at 10 µM: Rattus norvegicus, Microglia, 48 h, read-out: LPS % inhibition
# [3] = system: fibrin- and LPS-induced microglia activation; experiment: cells; assay type: cell-based, rat; details: quadrant by fibrin and LPS inhibition in HTS of 1907 compounds
# primary rat microglia [4] = experiment: Cell toxicity (dead cells, size <150 μm2) in LPS assay; details: primary microglia HTS, LPS stimulation
# primary rat microglia [5] = experiment: Cell toxicity (dead cells, size <150 μm2) in coated fibrin (cFib) assay; details: primary microglia HTS, fibrin stimulation;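 further: share of dead cells sized under 150 µm2 at 10 µM in fibrin-stimulated microglia HTS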
# [6] = activation = cell size >800 μm2
# [7] = increased cell size (>800 μm^2) as marker of activation
# [8] = decreased size (<150 μm^2) as marker of toxicity
Structure (SMILES),"Fibrin % inhibition [1, 6]","LPS % inhibition [2, 6]",Quadrant (FIG. 5b) [3],LPS % cell toxicity (primary rat microglia [4]; toxicity = cell size <150 μm2),Fibrin % cell toxicity (primary rat microglia [5]; toxicity = cell size <150 μm2),"inhibition at 10 µM [1, 6]","inhibition at 10 µM [2, 6]","inhibition at 10 µM [1, 7]","inhibition at 10 µM [2, 7]",LPS % cell toxicity (primary rat microglia [4]; [8]),Fibrin % cell toxicity (primary rat microglia [5]; [8]),"Fibrin % inhibition [1, 7]","LPS % inhibition [2, 7]"
CCC[C@@H]1C[C@@H](C(=O)N[C@@H]([C@H]2O[C@H](SC)[C@H](O)[C@@H](O)[C@H]2O)[C@@H](C)O)N(C)C1 [Lincomycin],−29%,−5%,Q4,0%,1%,–,–,–,–,–,–,–,–
NC(=O)CCCCC1CCSS1 (stereo not shown) [Lipoamide],–,–,Q4,0%,0%,-18%,8%,–,–,–,–,–,–
CN1[C@@H](CC(=O)c2ccccc2)CCC[C@H]1C[C@H](O)c1ccccc1 [Lobeline],–,–,Q4,0%,1%,-38%,-5%,–,–,–,–,–,–
CCOC(=O)Nc1nc2ccccc2[nH]1 [Lobendazole],–,–,Q4,0%,0%,-4%,20%,–,–,–,–,–,–
"COc1ccc(CN2CCN(C(c3ccc(F)cc3)c3ccc(F)cc3)CC2)c(OC)c1OC [Lomerizine, Lomerizine Dihydrochloride]",−5%,8%,Q4,0%,1%,–,–,–,–,–,–,–,–
O=C(O)c1nn(Cc2ccc(Cl)cc2Cl)c2ccccc12 [Lonidamine],–,–,Q4,0%,1%,7%,19%,–,–,–,–,–,–
O=C1Nc2ccc(Cl)cc2C(c2ccccc2Cl)=NC1O (stereo not shown) [Lorazepam],–,–,Q4,0%,1%,-13%,-1%,–,–,–,–,–,–
CCCCCN(CCCCC)C(=O)C(CCC(=O)O)NC(=O)c1ccc(Cl)c(Cl)c1 (stereo not shown) [Lorglumide Sodium],–,–,Q4,1%,1%,-29%,13%,–,–,–,–,–,–
CN1C(C(=O)Nc2ccccn2)=C(O)c2sc(Cl)cc2S1(=O)=O [Lornoxicam],–,–,Q4,–,–,–,–,22%,10%,1%,0%,–,–
CN1CCN(C2=Nc3ccccc3Oc3ccc(Cl)cc32)CC1 [Loxapine],–,–,Q4,–,–,–,–,-41%,9%,0%,0%,–,–
CC(C(=O)O)c1ccc(CC2CCCC2=O)cc1 (stereo not shown) [Loxoprofen],–,–,Q4,–,–,–,–,-19%,10%,0%,1%,–,–
O=C(NC(=O)c1c(F)cccc1F)Nc1cc(Cl)c(OC(F)(F)C(F)C(F)(F)F)cc1Cl (stereo not shown) [Lufenuron],–,–,Q4,–,–,–,–,15%,13%,0%,1%,–,–
Cc1ccc(Nc2c(F)cccc2Cl)c(CC(=O)O)c1 [Lumiracoxib],–,–,Q4,–,–,–,–,14%,18%,0%,1%,–,–
NCc1ccc(S(N)(=O)=O)cc1 [Mafenide],–,–,Q4,–,–,–,–,10%,-3%,0%,1%,–,–
CCOC(=O)CC(SP(=S)(OC)OC)C(=O)OCC (stereo not shown) [Malathion],–,–,Q4,–,–,–,–,-8%,8%,0%,0%,–,–
Cc1ncc(COP(=O)([O-])[O-])c(CN(CCN(CC(=O)[O-])Cc2c(COP(=O)([O-])[O-])cnc(C)c2[O-])CC(=O)[O-])c1[O-].[H+].[H+].[H+].[Mn+2].[Na+].[Na+].[Na+] [Mangafodipir Trisodium],–,–,Q4,–,–,–,–,–,–,0%,1%,1%,11%
COC(=O)C1=C(C)NC(C)=C(C(=O)OCCN2CCN(C(c3ccccc3)c3ccccc3)CC2)C1c1cccc([N+](=O)[O-])c1 (stereo not shown) [Manidipine Hydrochloride],–,–,Q4,–,–,–,–,-43%,12%,1%,1%,–,–
OC[C@@H](O)[C@@H](O)[C@H](O)[C@H](O)CO [Mannitol],–,–,Q4,–,–,–,–,5%,0%,0%,1%,–,–

Structure (SMILES),"Fibrin % inhibition [1, 6]","LPS % inhibition [2, 6]",Quadrant (FIG. 5b) [3],LPS % cell toxicity (primary rat microglia [4]; toxicity = cell size <150 μm2),Fibrin % cell toxicity (primary rat microglia [5]; toxicity = cell size <150 μm2),"inhibition at 10 µM [1, 6]","inhibition at 10 µM [2, 6]","inhibition at 10 µM [1, 7]","inhibition at 10 µM [2, 7]",LPS % cell toxicity (primary rat microglia [4]; [8]),Fibrin % cell toxicity (primary rat microglia [5]; [8]),"Fibrin % inhibition [1, 7]","LPS % inhibition [2, 7]"
CCN(CCCCOC(=O)c1ccc(OC)c(OC)c1)C(C)Cc1ccc(OC)cc1 (stereo not shown) [Mebeverine],–,–,Q4,–,–,–,–,-11%,7%,0%,0%,–,–
CN1CCc2c(c3ccccc3n2Cc2ccccc2)C1.CN1CCc2c(c3ccccc3n2Cc2ccccc2)C1.O=S(=O)(O)c1cccc2c(S(=O)(=O)O)cccc12 [Mebhydrolin Naphthalenesulfonate],–,–,Q4,–,–,–,–,–,–,0%,1%,4%,17%
Cc1cccc(CN2CCN(C(c3ccccc3)c3ccc(Cl)cc3)CC2)c1 (stereo not shown) [Meclizine],–,–,Q4,–,–,–,–,-33%,12%,0%,0%,–,–
C=C1c2c(Cl)ccc(O)c2C(=O)C2=C(O)[C@]3(O)C(=O)C(C(N)=O)=C(O)[C@@H](N(C)C)[C@@H]3[C@@H](O)[C@H]12.O=C(O)c1cc(S(=O)(=O)O)ccc1O [Meclocycline Sulfosalicylate],–,–,Q4,–,–,–,–,–,–,0%,1%,20%,18%
Cc1ccc(Cl)c(Nc2ccccc2C(=O)O)c1Cl [Meclofenamic Acid],–,–,Q4,–,–,–,–,12%,14%,0%,1%,–,–
CN(C)CCOC(=O)COc1ccc(Cl)cc1 [Meclofenoxate],–,–,Q4,–,–,–,–,-23%,24%,0%,1%,–,–
COC(=O)C(N)CS (stereo not shown) [Mecysteine Hydrochloride],–,–,Q4,–,–,–,–,20%,22%,0%,1%,–,–
CC(=O)[C@H]1CC[C@H]2[C@@H]3C[C@H](C)C4=CC(=O)CC[C@]4(C)[C@H]3[C@@H](O)C[C@]12C [Medrysone],–,–,Q2,–,–,–,–,111%,87%,4%,4%,–,–
"CCN(CC)CCNC(=O)COc1ccc(OC)cc1 [Mefexamide, Mefexamide Hydrochloride]",–,–,Q4,–,–,–,–,–,–,0%,0%,−13%,−2%
COc1ccc2[nH]cc(CCNC(C)=O)c2c1 [Melatonin],–,–,Q4,–,–,–,–,4%,-3%,0%,1%,–,–
Cc1cnc(NC(=O)C2=C(O)c3ccccc3S(=O)(=O)N2C)s1 [Meloxicam],–,–,Q4,–,–,–,–,-1%,20%,0%,1%,–,–
CC12CC3CC(C)(C1)CC(N)(C3)C2 [Memantine],–,–,Q4,–,–,–,–,2%,5%,0%,0%,–,–
CC1=CC(=O)c2ccccc2C1=O [Menadione],–,–,Q2,–,–,–,–,113%,123%,62%,87%,–,–
C[N+]1(C)CCCC(OC(=O)C(O)(c2ccccc2)c2ccccc2)C1 (stereo not shown) [Mepenzolate],–,–,Q4,–,–,–,–,45%,34%,1%,1%,–,–
[O-][n+]1cccc(CO)c1 [Mepiroxol],–,–,Q4,–,–,–,–,–,–,0%,1%,−6%,11%
Cc1cccc(C)c1NC(=O)C1CCCCN1C (stereo not shown) [Mepivacaine],–,–,Q4,–,–,–,–,7%,10%,0%,0%,–,–
CCCNC(C)(C)COC(=O)c1ccccc1 [Meprylcaine Hydrochloride],–,–,Q4,–,–,–,–,-10%,7%,0%,0%,–,–
